# Laboratory results published in patent US20190203240A1, “METHODS FOR THE PRODUCTION OF RHAMNOSYLATED FLAVONOIDS” (Universitaet Hamburg, priority 2016, published 2019).
# Where “and” joins values, the source holds several entries; their conditions need not be identical. Equal values may be shown once.
# Columns and labels:
# [1] = test system: matrix metallopeptidase 1 (MMP-1); experiment: MMP-1 release in UVA-irradiated NHDF (ELISA); format: cell-based, human
# Method: (§1) Tests were performed with normal human dermal fibroblast cultures at the 8th passage. Cells were grown in DMEM supplemented with glutamine at 2 mM, penicillin at 50 U/mL and streptomycin (50 μg/mL) and 10% of fetal calf serum (FCS) at 37° C. in a 5% CO2 atmosphere.
# Human fibroblasts were cultured for 24 hours before the cells were pre-incubated with the test or reference compounds (dexamethasone) for another 24 hours. The medium was replaced by the irradiation medium (EBSS, CaCl2) 0.264 g/L, MgClSO4 0.2 g/L) containing the test compounds) and cells were irradiated with UVA (15 J/cm^2). The irradiation medium was replaced by culture medium including again the test compounds incubated for 48 hours. After incubation the quantity of matrix metallopeptidase 1 (MMP-1) in the culture supernatant was measured using an ELISA kit.
# VEGF = experiment: Stimulation of VEGF release in NHDF (ELISA); format: cell-based, human; conditions: 72 hours, 100 μM
# Method: as §1
# (§2) Fibroblasts were cultured for 24 hours before the cells were incubated with the test compounds for further 72 hours. After the incubation the culture supernatants were collected in order to measure the released quantities of procollagen I, VEGF, and fibronectin by means of ELISA. Reference test compounds were vitamin C (procollagen I), PMA (VEGF), and TGF-β (fibronectin).
# STAT3 = STAT3 activity in HeLa-STAT3-luc cells stimulated with IFN-γ (luciferase); format: cell-based; conditions: +IFNγ 25 U/ml
# Method: HeLa-STAT3-luc cells were stably transfected with the plasmid 4×M67 pTATA TK-Luc. Cells (20×10^3 cells/ml) were seeded 96-well plate the day before the assay. Then the cells were treated with the test substances for […] and then stimulated with IFN-γ 25 IU/ml. After 6 h, the cells were washed twice with PBS and lysed in […] lysis buffer containing 25 mM Tris-phosphate (pH 7.8), 8 mM MgCl2, 1 mM DTT, 1% Triton X-100, and 7% glycerol during […] at RT in a horizontal shaker. Luciferase activity was measured using GloMax 96 microplate luminometer (Promega) following the instructions of the luciferase assay kit (Promega, Madison, Wis., USA). […] The experiments for each concentration of the test items were done in triplicate wells.
# HaCaT cells = experiment: Glucose uptake (2-NBDG) in HaCaT keratinocytes; format: cell-based; conditions: +2NBDG 50 μM, 24 h
# Method: HaCaT cells (5×10^4) were seeded in 96-well black plates and incubated for 24 h. Then, medium was removed and the cells cultivated in OptiMEM, labeled with 50 μM 2-NBDG (2-[N-(7-nitrobenz-2-oxa-1,3-diazol-4-yl) amino]-2-deoxy-D-glucose and treated with the test substances or the positive control, Rosiglitazone, for 24 h. Medium was removed and the wells were carefully washed with PBS and incubated in PBS (100 μl/well). Finally the fluorescence was measured using the Incucyte FLR software, the data were analyzed by the total green object integrated intensity (GCU×μm2×Well) of the imaging system IncuCyte HD (Essen BioScience). The fluorescence of Rosiglitazone is taken as 100% of glucose uptake, and the glucose uptake was calculated as (% Glucose uptake)=100(T−B)/(R−B), where T (treated) is the fluorescence of test substance-treated cells, B (Basal) is the fluorescence of 2-NBDG cells and […] is the fluorescence of cells treated with Rosiglitazone.
# procollagen I = experiment: Stimulation of procollagen I synthesis in NHDF (ELISA); format: cell-based, human; conditions: 72 hours, 100 μM
# Method: as §1, §2
# [2] = NHDF irradiated 15 J/cm^2 UVA, 100 μM
smiles,measurement,setting,value
"C[C@@H]1O[C@@H](Oc2cc(O)cc3c2C(=O)CC(c2ccc(O)cc2)O3)[C@H](O)[C@H](O)[C@H]1O (mixture of isomers) [NR1, Naringenin-5-O-α-L-rhamnoside]",MMP-1 % Irradiated control,[1]; [2],338%
same,MMP-1 % Protection,[1]; [2],−372%
same,"MMP-1 (ng/ml), single replicates",[1]; [2],211.7 ng/mL and 268.8 ng/mL
same,Mean MMP-1,[1]; [2],240.3 ng/mL
same,upregulation of MMP-1 biosynthesis,"[1]; NHDF, UV-irradiated conditions",~4 fold
same,Mean VEGF,VEGF,92 pg/mL
same,VEGF % Control,VEGF,128%
same,VEGF,VEGF; single values,90 pg/mL and 94 pg/mL
same,% Activation (STAT3; IFNγ = 100%),STAT3; 25 μM,58.47%
same,RLU 1,STAT3; 25 μM,10925 RLU
same,RLU 2,STAT3; 25 μM,8301 RLU
same,RLU 3,STAT3; 25 μM,8752 RLU
same,RLU MEAN,STAT3; 25 μM,9326 RLU
same,RLU specific,STAT3; 25 μM,7319 RLU
same,% Activation (STAT3; IFNγ = 100%),STAT3; 50 μM,69.97%
same,RLU 1,STAT3; 50 μM,18272 RLU
same,RLU 2,STAT3; 50 μM,6426 RLU
same,RLU 3,STAT3; 50 μM,7599 RLU
same,RLU MEAN,STAT3; 50 μM,10766 RLU
same,RLU specific,STAT3; 50 μM,8758 RLU
same,% Glucose uptake (Rosiglitazone = 100%),HaCaT cells; 25 μM,87.7%
same,Mean (fluorescence),HaCaT cells; 25 μM,768005
same,Measure 1 (fluorescence),HaCaT cells; 25 μM,493970
same,Measure 2 (fluorescence),HaCaT cells; 25 μM,1160754
same,Measure 3 (fluorescence),HaCaT cells; 25 μM,649291
same,RFU specific,HaCaT cells; 25 μM,761691 RFU
same,% Glucose uptake (Rosiglitazone = 100%),HaCaT cells; 50 μM,29.6%
same,Mean (fluorescence),HaCaT cells; 50 μM,263881
same,Measure 1 (fluorescence),HaCaT cells; 50 μM,278134
same,Measure 2 (fluorescence),HaCaT cells; 50 μM,256310
same,Measure 3 (fluorescence),HaCaT cells; 50 μM,257198
same,RFU specific,HaCaT cells; 50 μM,257567 RFU
same,Procollagen I % Control,procollagen I,66%
same,Procollagen I % Stimulation,procollagen I,−34%
same,Procollagen I Mean,procollagen I,1097 ng/mL
same,Procollagen I,procollagen I; single values,1334 ng/mL and 860 ng/mL
